As usually defined, the pIC50 is −log10 of the IC50, conventionally taken in molar units.

pIC50: −log10 of the molar value. A value given as a limit tells only on which side of the number the result lay.

The target in test [1] is T1, SCD1 (Homo sapiens, UniProt O00767).
T1 construct: host or cells: S. cerevisiae ole1Δ strain (W303 pdr1Δ pdr3Δ background), plasmid pRS316 with TDH3 promoter and CYC1 terminator
T1 sequence (O00767 1-359): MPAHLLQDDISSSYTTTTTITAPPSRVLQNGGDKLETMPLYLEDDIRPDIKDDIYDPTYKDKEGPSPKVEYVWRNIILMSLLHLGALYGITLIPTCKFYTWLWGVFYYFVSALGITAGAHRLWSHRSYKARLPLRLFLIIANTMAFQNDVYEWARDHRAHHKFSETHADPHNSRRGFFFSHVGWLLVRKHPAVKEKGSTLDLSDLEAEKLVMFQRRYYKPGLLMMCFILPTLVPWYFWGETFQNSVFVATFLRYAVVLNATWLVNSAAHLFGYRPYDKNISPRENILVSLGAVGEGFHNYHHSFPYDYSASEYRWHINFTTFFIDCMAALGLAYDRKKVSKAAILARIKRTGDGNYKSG
Put plainly: Growth inhibition of humanized yeast strain expressing SCD1 as sole desaturase. The format is cell-based. Here is the method: Strain oleΔ (yeast ole1 deletion mutant) was constructed by deleting OLE1 with NAT-MX6 in BY4741, amplifying the deletion cassette from the genomic DNA of the resulting strain with primers flanking the ORF by 1000 bp upstream and downstream, transforming the resulting deletion cassette into W303 pdr1Δ pdr3Δ, and plating transformants on YPD media containing G418 (200 μg/mL) and nourseothricin ([…]) with 0.01% TWEEN®-20 and 0.5 mM oleic and palmitoleic acids.
The coding sequence of yeast OLE1 was also cloned into this plasmid). These clones were then transformed into the ole1Δ strain and plated on CSM-Ura media (CSM lacking uracil) with 2% glucose (w/v) and independent colonies were isolated and amplified.
All compound profiling experiments were performed using the same basic protocol. Different genetic backgrounds (e.g., gene deletions) or conditions (e.g., addition of oleic and palmitoleic acid) were replaced as indicated below.
Yeast were cultured using standard techniques in complete synthetic media (CSM) and yeast nitrogen base supplemented with 2% (w/v) carbon source (glucose, raffinose, or galactose) to regulate the expression of the toxic disease protein. An initial starter culture was inoculated in 3 mL CSM-Glucose media and incubated overnight in a 30° C. shaker incubator (225 rpm). Saturated morning cultures were then diluted 1:20 in fresh CSM-Raffinose media and grown for 6 h to an OD600 (optical density) of ˜0.4-0.8 at 30° C. with shaking.
Compound administration was performed in two separate steps. First, 15 μL of CSM-Galactose (induces expression of toxic protein) was dispensed into clear 384 well assay plates using a MULTIDROP™ Combi reagent dispenser. […] The cultures described above were then diluted to a 2× concentration (0.03 and 0.08 for alpha-synuclein and ApoE, final ODsoo of 0.015 and 0.04) in CSM-Galactose. For wild-type and Ole1/SCD1/SCD5 plasmid-containing strains, the 2× cell density was 0.02. […] For 96-well assays (FIGS. 1A and 1B), compound dilutions in DMSO were generated in 96 well plates and 1 μL was manually pipetted into 96 well clear bottom assay plates.
For experiments using a plasmid-borne copy of Ole1, SCD1, or SCD5 (FIGS. 3B, 6, and 7), media lacking uracil (SX-Ura, where X is glucose, raffinose, or galactose), was used for all steps of the compound profiling protocol to ensure its maintenance throughout the assay.
After yeast delivery, assay plates were incubated under humidified conditions at 30° C. for 24 to 40 h. ApoE4 rescue experiments were stopped at 24 h, aSyn experiments at 40 h, Ole1 at 24 h, and SCD1/SCD5 at 40 h. The growth of yeast was monitored by reading the ODsoo of each well using a microplate reader (Perkin Elmer EnVision™).

Test [2] addresses T2, SCD5 (Homo sapiens, UniProt Q86SK9).
T2 construct: host or cells: S. cerevisiae ole1Δ strain (W303 pdr1Δ pdr3Δ background), plasmid pRS316 with TDH3 promoter and CYC1 terminator
T2 sequence (Q86SK9 1-330): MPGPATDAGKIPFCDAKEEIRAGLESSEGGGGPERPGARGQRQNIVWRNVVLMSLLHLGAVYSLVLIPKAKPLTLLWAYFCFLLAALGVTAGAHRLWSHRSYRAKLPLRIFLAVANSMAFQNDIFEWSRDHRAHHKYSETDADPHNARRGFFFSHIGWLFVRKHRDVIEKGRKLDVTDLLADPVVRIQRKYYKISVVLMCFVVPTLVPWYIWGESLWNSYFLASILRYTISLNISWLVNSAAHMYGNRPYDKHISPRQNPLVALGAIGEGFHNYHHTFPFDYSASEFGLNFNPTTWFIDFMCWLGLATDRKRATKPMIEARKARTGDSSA
In words: Growth inhibition of humanized yeast strain expressing SCD5 as sole desaturase. The format is cell-based. A digest of the protocol: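 Plasmid-complemented ole1Δ yeast, drug-pump deleted (pdr1Δ pdr3Δ), depend solely on the introduced Ole1, SCD1 or SCD5 desaturase. Compounds are added from DMSO to cells in uracil-free galactose medium, 2× density 0.02, and OD600 is read after 24 h or 40 h respectively.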

Setting [3] is: humanized yeast strain expressing SCD1.
[4] abbreviates: humanized yeast strain expressing SCD5.
[5] abbreviates: growth inhibition of humanized yeast strain expressing human SCD1.
The mark [6] stands for this setting: growth inhibition of humanized yeast strain expressing human SCD5.

For the compound `COC1(C2CCN(c3nc(-c4ccc5cnn(C(C)C)c5c4)no3)CC2)COC1` [Compound 830], the pIC50 was under 4.35 in test [1] (humanized yeast strain, 40 h) and under 4.35 in test [2] (humanized yeast strain, 40 h).
For the compound `Cc1nn(C)c2cc(-c3noc(C4CCN(c5nc6ccccc6o5)CC4)n3)ccc12` [Compound 514], the pIC50 in test [1] (setting [3]) and in test [2] (setting [4]) was under 4.35 in each case.
In the case of `O=C(C1CC1)N1CCC(c2noc(-c3ccc4cnn(C5COC5)c4c3)n2)CC1` [Compound 887], the pIC50 was under 4.35 in test [1] (humanized yeast strain, 40 h) and 8.00 in test [2] (humanized yeast strain, 40 h).
As for `CC(C)n1ncc2ccc(-c3noc(C4CCN(C(=O)CNC(=O)c5ccc(Cl)cc5)CC4(F)F)n3)cc21` (centres unmarked) [Compound 521], the values for the pIC50 in test [1] (setting [3]) and in test [2] (setting [4]) were under 4.35 and 5.06, respectively.
In the case of `COC(=O)N1CCC(c2noc(-c3cc4c(cnn4C4COC4)cc3F)n2)CC1` [Compound 944], the pIC50 is under 4.35 in test [1] (humanized yeast strain, 40 h) and 5.65 in test [2] (humanized yeast strain, 40 h).
Regarding `COC(=O)N1CCC(c2noc(-c3cc(C)c4cnn(C5COC5)c4c3)n2)CC1` [Compound 1070], the pIC50 in test [1] (humanized yeast strain, 40 h) was under 4.35; in test [2] (humanized yeast strain, 40 h), 7.09.
The corresponding values for `CC(C)n1ncc2ccc(-c3noc(C4CCN(C(=O)C5(O)CC5)CC4)n3)cc21` [Compound 779] are under 4.35 and 4.82.
Taken in the same sequence, the figures for `CC(C)(C)CCC(=O)N1CC(c2nc(-c3ccc4cnn(C5COC5)c4c3)no2)C1` [Compound 749] were under 4.35 and 4.68.
The corresponding values for `CC(C)(C)OC(=O)N1CCC(c2cc(-c3cc4c(cn3)cnn4C3COC3)on2)CC1` [Compound 1107] are under 4.35 and 8.00.
Take `CC(C)(C)CC(=O)N1CCN(c2nc(-c3ccc4cnn(C5COC5)c4c3)no2)CC1` [Compound 619]: the pIC50 in test [1] (setting [5]) was under 4.35; in test [2] (setting [6]) it was 6.54.
Turning to `COC(=O)N1CCC(c2noc(-c3ccccc3N3CCOCC3)n2)CC1` [Compound 1169], the pIC50 was 4.81 in test [1] (humanized yeast strain, 40 h) and under 4.35 in test [2] (humanized yeast strain, 40 h).
The corresponding values for `Clc1cnc2n1CCN(c1noc(-c3ccc4cnn(C5CNC5)c4c3)n1)C2` [Compound 934] are under 4.35 and 8.00.
Taken in the same sequence, the figures for `CC(C)(C)OC(=O)N1CCC(c2nc(-c3ccc4c(C#N)ncn4c3)no2)CC1` [Compound 899] were under 4.35 and 4.59.
On to `CC(C)(C)OC(=O)N1CC=C(c2ccc(-c3ccc4cnn(C5COC5)c4c3)nc2)CC1` [Compound 1010], for which the pIC50 in test [1] (humanized yeast strain, 40 h) is under 4.35; in test [2] (humanized yeast strain, 40 h), 6.09.
Taken in the same sequence, the figures for `COC(=O)N1CCC(c2noc(-c3cc(C#N)c4cnn(C5COC5)c4c3)n2)CC1` [Compound 1085] were under 4.35 and 6.27.
Taken in the same sequence, the figures for `CC(C)(C)OC(=O)N1CCC(c2noc(-c3ccc4ccn(C5COC5)c4c3)n2)CC1` [Compound 1039] were 4.80 and 8.00.
For `O=C(C1CCC1)N1CCC(c2nc(-c3ccc4cnn(C5COC5)c4c3)no2)CC1` [Compound 1044], the pIC50 is under 4.35 in test [1] (humanized yeast strain, 40 h) and 6.23 in test [2] (humanized yeast strain, 40 h).
Taken in the same sequence, the figures for `O=C(OC1CC1)N1CCN(c2noc(-c3ccc4cnn(C5COC5)c4c3)n2)CC(F)(F)C1` [Compound 1083] were under 4.35 and 7.48.
As to `COCCc1nn(C(C)C)c2cc(-c3noc(C4CCN(C(=O)OC(C)(C)C)CC4)n3)ccc12` [Compound 702], the pIC50 in test [1] (setting [5]) and in test [2] (setting [6]) was under 4.35 in each case.
`O=C(CC1CC1)N1CCC(c2noc(-c3ccc4cnn(C5COC5)c4c3)n2)CC1` [Compound 894]: the pIC50 in test [1] (humanized yeast strain, 40 h) was under 4.35; in test [2] (humanized yeast strain, 40 h), 7.15.
With `Cc1nn(C)c2cc(-c3noc(C4CCN(C(=O)CNC(=O)c5ccc(F)cc5)CC4(F)F)n3)ccc12` (centres unmarked) [Compound 557], the pIC50 is under 4.35 in test [1] (setting [3]) and 5.22 in test [2] (setting [4]).
For `CC(C)(C)OC(=O)N1CCC(c2noc(-c3ccc4cnc(C5COC5)n4c3)n2)CC1` [Compound 909], the pIC50 is under 4.35 in test [1] (humanized yeast strain, 40 h) and 5.55 in test [2] (humanized yeast strain, 40 h).
On to `CN(C)CC(=O)N1CCN(c2nc(-c3ccc4cnn(C5COC5)c4c3)no2)CC1` [Compound 737], for which the pIC50 in test [1] (setting [5]) and in test [2] (setting [6]) was under 4.35 throughout.
For the compound `CC(C)(C)OC(=O)N1CCC(c2noc(-c3ccc4cnn([C@H]5C[C@@H](O)C5)c4c3)n2)CC1` [Compound 933], the pIC50 in test [1] (humanized yeast strain, 40 h) was under 4.35; in test [2] (humanized yeast strain, 40 h), 6.70.
On to `O=C(c1ncccc1F)N1CCC(c2noc(-c3ccc4cnn(C5COC5)c4c3)n2)CC1` [Compound 881], for which the pIC50 is under 4.35 in test [1] (humanized yeast strain, 40 h) and 8.00 in test [2] (humanized yeast strain, 40 h).
Consider `CC(C)C(=O)N1CCC(c2noc(-c3ccnc(N4CCC(F)(F)C4)c3)n2)CC1` [Compound 1170], for which the pIC50 was under 4.35 in test [1] (humanized yeast strain, 40 h) and 6.40 in test [2] (humanized yeast strain, 40 h).
For `O=C(N1CCC(c2cc(-c3cc4c(cn3)cnn4C3COC3)on2)CC1)C1(F)CC1` [Compound 1110], the pIC50 was under 4.35 in test [1] (humanized yeast strain, 40 h) and 8.00 in test [2] (humanized yeast strain, 40 h).
Regarding `CC(C)C(=O)N1CCC(c2noc(-c3ccccc3N3CCOCC3)n2)CC1` [Compound 1167], the pIC50 in test [1] (humanized yeast strain, 40 h) was under 4.35; in test [2] (humanized yeast strain, 40 h) it was under 4.35.
Consider `CC(C)(C)OC(=O)N1CCC(c2noc(-c3cc4c(cnn4C4COC4)cc3F)n2)CC1` [Compound 931], for which the pIC50 in test [1] (humanized yeast strain, 40 h) is under 4.35; in test [2] (humanized yeast strain, 40 h), under 4.35.
As for `O=C(c1sccc1Cl)N1CCC(c2nc(-c3ccc4cnn(C5COC5)c4c3)no2)CC1` [Compound 718], the pIC50 was under 4.35 in test [1] (setting [5]) and 6.20 in test [2] (setting [6]).
With `CC(C)C(=O)N1CCC(c2nc(-c3ccc(N4CCOCC4)cc3)no2)CC1` [Compound 1165], the pIC50 in test [1] (humanized yeast strain, 40 h) was under 4.35; in test [2] (humanized yeast strain, 40 h), under 4.35.
In the case of `CC(C)n1ncc2ccc(-c3noc(C4CCN(C(=O)CNC(=O)c5ccccc5)CC4(F)F)n3)cc21` (centres unmarked) [Compound 519], the pIC50 in test [1] (setting [3]) and in test [2] (setting [4]) was under 4.35 each time.
For the compound `Cc1nn(C)c2cc(-c3noc(C4CCN(C(=O)CCC(F)(F)F)CC4)n3)ccc12` [Compound 518], the pIC50 in test [1] (setting [3]) was under 4.35; in test [2] (setting [4]), 5.53.
Turning to `CC(C)(C)OC(=O)N1CCC(c2nc(-c3ccc4cnc(C5COC5)n4c3)no2)CC1` [Compound 811], the pIC50 in test [1] (humanized yeast strain, 40 h) is under 4.35; in test [2] (humanized yeast strain, 40 h) it was 6.17.
The corresponding values for `CC1(CC(=O)N2CCC(c3noc(-c4ccc5cnn(C6COC6)c5c4)n3)CC2)CC1` [Compound 886] are 4.97 and 7.22.
`CCC(=O)N1CCC(c2noc(-c3ccc4cnn([C@H]5CCOC5)c4c3)n2)CC1` [Compound 1049]: the pIC50 in test [1] (humanized yeast strain, 40 h) is under 4.35; in test [2] (humanized yeast strain, 40 h) it was 7.92.
`CC(C)n1ncc2ccc(-c3noc(N4CCN(C(=O)c5ccccc5)CC4)n3)cc21` [Compound 362]: the “SCD1 % Max Inhibition” value in test [1] (setting [3]) was 67.00%. Further, in test [2] (setting [4]), the pIC50 was under 4.35 and the “SCD5 % Max Inhibition” value turned out to be 2.26%.
As to `COC1CCC(S(=O)(=O)N2CCC(c3nc(-c4ccc5cnn(C(C)C)c5c4)no3)CC2)CC1` (centres unmarked) [Compound 517], the pIC50 in test [1] (setting [3]) and in test [2] (setting [4]) was under 4.35 in each case.

For the origin of these results see US11873298B2, “Compounds and uses thereof” (JANSSEN PHARMACEUTICA NV, priority 2017, dated 2024).
